This is an account of results in patent US20160220552A1, “FORMULATIONS FOR CGRP RECEPTOR ANTAGONISTS” (MERCK SHARP & DOHME CORP., priority 2013, published 2016).

For data set [1] the following is noted: clinical trials; cited from earlier work.
The conditions of data set [2]: control group; cited from earlier work.
Data set [3] in a line: BCS classification / solubility of Compound I. It counts as physicochemical.
Data set [4] in a line: Permeability of Compound I. It counts as in vitro ADME. The conditions noted are these: not told.

For `NCCCC[C@H](NC(=O)[C@@H](Cc1cc(Br)c(O)c(Br)c1)NC(=O)N1CCC(N2Cc3ccccc3NC2=O)CC1)C(=O)N1CCN(c2ccncc2)CC1` [BIBN4096BS], in data set [1], the “effectiveness in treating migraine” value was “effective in treating acute attacks of migraine”. Also, the “prevention of headache induced by CGRP infusion” value in data set [2] was “able to prevent headache induced by CGRP infusion”.
As usually defined, the Papp is the rate of passage across a membrane or cell layer, normalised by area and donor concentration. A low value points to poor permeation. Turning to `C[C@@H]1[C@H](c2ccccc2)C[C@H](NC(=O)c2cnc3c(c2)C[C@@]2(C3)C(=O)Nc3ncccc32)C(=O)N1CC(F)(F)F` [Compound I, (S)—N-((3S,5S,6R)-6-methyl-2-oxo-5-phenyl-1-(2,2,2-trifluoroethyl)piperidine-3-yl)-2′-oxo-1′,2′,5,7-tetrahydrospiro[cyclopenta[b]pyridine-6,3′-pyrrolo[2,3-b]pyridine]-3-carboxamide trihydrate], in data set [3], the “BCS Class” value was “BCS Class 4” and the solubility result was “low solubility”. This compound also had a Papp in data set [4] of 16.6 ×10⁻⁶ cm/s.
Regarding `O=C(N[C@@H]1CC[C@@H](c2cccc(F)c2F)CN(CC(F)(F)F)C1=O)N1CCC(n2c(=O)[nH]c3ncccc32)CC1` [telcagepant], the “effectiveness in treating migraine” value in data set [1] was “shown antimigraine effectiveness”.
